Patent publication US20060135625A1, “Method of administering split doses of a vascular targeting agent” (priority 2002, published 2006)

Experiments:
tubulin = details: U.S. Pat. No. 4,996,237; cited from earlier work
[1] = human plasma; cited from earlier work
[2] = system: murine adenocarcinoma NT (CaNT) tumor; assay: in vitro clonogenic (colony-forming) assay of tumor cells isolated from treated CaNT tumor-bearing animals; format: in vivo, mice
Experimental: (§1) 1) Transplanted tumor model. A murine adenocarcinoma NT (“CaNT”) tumor was transplanted from a syngeneic donor and implanted subcutaneously onto the rear dorsum of 10-16 week old female CBA/Gy f TO mice, by injecting 0.05 ml of a crude cell suspension prepared by mechanical dissociation of the excised. Tumors were selected for treatment with the VTA CA4DP when the geometric mean diameter (“GMD”) reached 5-6.5 mm (150-300 mg), approximately 3-4 weeks after implantation.
(§2) In each of the following Examples 1-4, CA4DP (OXiGENE Inc, Watertown, Mass., USA) was dissolved in 0.9% saline at appropriate concentrations to allow each dose to be injected i.p. in 0.1 ml per 10 g body weight. 0.9% saline was used for control treatments.
To compare the anti-tumor effect of single and divided VTA dose scheduling, the survival of tumor cells isolated from a treated CaNT tumor-bearing animals was assessed by an in vitro clonogenic (colony-forming) assay, as described previously (Chaplin et al., Anticancer Research, 1999, 19: 189-196). Tumors were excised 18-24 h after CA4P injection. Two tumors were combined for each data point, weighed, minced with scissors and then disaggregated for 1 hour at 37° C. in an enzyme cocktail of 1 mg/ml pronase, 0.5 mg/ml DNase and 0.5 mg/ml collagenase. Following digestion, samples were passed through a 25G needle and a 35 μm filter to obtain a single cell suspension. Haemocytometer counts of trypan-blue excluding cells were made and known numbers of viable cells added to a feeder layer of heavily irradiated V79-379A Chinese hamster cells. After 7-10 days incubation, colonies were fixed, stained with methylene blue and counted. The data were calculated as surviving fraction per gram of tumor, which is a product of relative surviving fraction and relative cell yield per gram of tumor. Each experimental group was repeated at least 3 times, so that at least 6 tumors contribute to each data point.

T138 tumor vasculature = assay: functional vascular volume (Hoechst 33342) in T138 tumors; format: in vivo, mice; details: 24 hours post-treatment
Experimental: (§3) 2) Spontaneous T138 tumor model. The T138 tumor-bearing mice (“T138”) spontaneously developed mammary tumors between 5 and 18 months of age due to genetic predisposition.
as §2
The effect of VTA dose splitting on the tumor vascular response was also investigated in both CaNT and T138 tumor types, by measuring the functional vascular volume at 24 hours following treatment with single or split doses of CA4DP. Functional vascular volume is defined as the volume of tumor tissue perfused by tumor blood vessels, and is measured using the fluorescent DNA-binding dye Hoechst 33342 (Sigma-Aldrich Company Ltd., Dorset, UK) (Smith et al, British Journal of Cancer, 1988, 57: 247-253). […] Functional vessels were identified by the fluorescent outline of perivascular tissue and vascular volumes were determined using a random point scoring system based on that described by Chalkley (Chalkley, J. Natl Cancer Inst., 1943, 4: 47-53). At least 100 fields were scored at each of the three tumor levels and the results for treated tumors were expressed as a percentage of control values.

[3] = system: spontaneous T138 mammary tumors; assay: tumor growth delay in T138 tumor-bearing mice; format: in vivo
Experimental: as §3, §2
(§4) The anti-tumor effect of split dosing therapy was also assessed by an analysis of tumor growth delay in both CaNT and T138 tumor-bearing mice. For experiments involving the CaNT, dose groups comprised 5 to 6 animals, whereas for the T138, 10 to 15 animals were used. Following initial drug treatment, tumor growth was determined by measuring the diameter of each tumor in 3 orthogonal orientations two or three days each week.

[4] = system: microtubule assembly in tumor endothelium; details: cited from earlier work
CaNT tumor vasculature = assay: functional vascular volume (Hoechst 33342) in CaNT tumors; format: in vivo, mice; details: for reduction in perfused vascular volume: CaNT, 24 hours post-treatment
Experimental: as §1, §2
The effect of VTA dose splitting on the tumor vascular response was also investigated in both CaNT and T138 tumor types, by measuring the functional vascular volume at 24 hours following treatment with single or split doses of CA4DP. Functional vascular volume is defined as the volume of tumor tissue perfused by tumor blood vessels, and is measured using the fluorescent DNA-binding dye Hoechst 33342 (Sigma-Aldrich Company Ltd., Dorset, UK) (Smith et al, British Journal of Cancer, 1988, 57: 247-253). The dye was dissolved in 0.9% saline at 6.25 mg/ml and injected i.v. at a dose of 10 mg/kg at 24 hours post-treatment. Tumors were excised and frozen 1 minute later. Sections were cut at three levels and observed under UV illumination. Functional vessels were identified by the fluorescent outline of perivascular tissue and vascular volumes were determined using a random point scoring system based on that described by Chalkley (Chalkley, J. Natl Cancer Inst., 1943, 4: 47-53). At least 100 fields were scored at each of the three tumor levels and the results for treated tumors were expressed as a percentage of control values.

[5] = system: murine adenocarcinoma NT (CaNT) tumor; assay: tumor growth delay in CaNT tumor-bearing mice; format: in vivo
Experimental: as §1, §2, §4
The effect of repeated split VTA dosing therapy was also assessed by an analysis of tumor growth delay in both CaNT tumor-bearing mice. […] Repeated administration of total daily dose (50 mg/kg) 5 days a week for 2 weeks, produced a significant delay in tumor growth of approximately 2 days. Tumor growth delay was further improved by repeat administration of split dosing (2 doses of 25 mg/kg per day separated by a 6 hour interval), 5 days a week for 2 weeks (growth delay of approximately 5 days).

Row | SMILES | tubulin binding activity (tubulin) | solubility [1] | cell killing (surviving fraction of tumor cells) ([2]; two equal doses of 100 mg/kg i.p. separated by 1-6 hours, compared with a single 200 mg/kg dose, tumors excised 18-24 h after injection) | cell killing (surviving fraction of tumor cells) ([2]; two equal doses of 100 mg/kg, time interval between doses 2 to 4 hours (p<0.05)) | cell killing (surviving fraction of tumor cells) ([2]; unequal doses separated by 4 hours, compared with equal doses) | reduction of perfused vascular volume (T138 tumor vasculature; T138, single dose 200 mg/kg) | amount of perfused vascular tissue, of the control value (T138 tumor vasculature; T138, two split doses of 100 mg/kg) | tumor growth delay ([3]; single dose of 500 mg/kg) | tumor growth delay ([3]; two equal doses of 250 mg/kg separated by 3 hours) | inhibition of microtubule assembly [4] | reduction in perfused vascular volume (CaNT tumor vasculature; single 50 mg/kg dose) | reduction in perfused vascular volume (CaNT tumor vasculature; two 25 mg/kg doses separated by 3 hours) | reducing the fraction of perfused vascular volume (CaNT tumor vasculature; two equal split doses compared with a single dose, observed in both CaNT and T138 tumor models) | tumor growth delay ([5]; CaNT mice, single 200 mg/kg dose i.p.) | tumor growth delay ([5]; CaNT mice, two equal doses of 100 mg/kg separated by 3 hours) | tumor growth delay ([5]; CaNT, repeated split dosing, 2 doses of 25 mg/kg per day separated by 6 hours, 5 days a week for 2 weeks) | tumor growth delay ([5]; CaNT, repeated total daily dose 50 mg/kg, 5 days a week for 2 weeks) | effect on tumor growth relative to control ([5]; CaNT, single dose 50 mg/kg)
1 | COc1ccc(/C=C\c2cc(OC)c(OC)c(OC)c2)cc1O [CA-4, Combretastatin A-4] | found to have tubulin binding activity | insolubility |  |  |  |  |  |  |  |  |  |  |  |  |  |  |  | 
2 | COc1ccc(/C=C\c2cc(OC)c(OC)c(OC)c2)cc1OP(=O)([O-])[O-].[Na+].[Na+] [CA4DP, Combretastatin A-4 Disodium Phosphate Prodrug] |  |  | significantly more cell killing | most pronounced | less effective than equal doses of treatment | completely ineffective | 50% | no effect on tumor growth | approximately 4 days | potent inhibitor of microtubule assembly | 40% | 80% | significantly more effective than a single dose | did not delay growth relative to control | approximately 3 days | approximately 5 days | approximately 2 days | only minimal effects on tumor growth
